The values below come from patent US6790865B2, “2-methylpropionic acid derivatives and pharmaceutical compositions comprising the same” (Kissei Pharmaceutical Co., Ltd., priority 1998, dated 2004).

The target in series [1] is β3-adrenoceptor (Mustela putorius furo, UniProt M3YEU4). The experiment in a line: β3-adrenoceptor stimulating effects, isolated ferret urinary bladder smooth muscle relaxation (Magnus method). Type of series: cell-based. Conditions: isolated male ferret urinary bladder smooth muscle strips; 0% = maximal relaxation after 10^−5M forskolin; read-out: EC50 (concentration producing 50% decrease of urinary bladder tension). The protocol:
Namely, urinary bladders of ferrets were isolated and preparations were made. The experiment was conducted according to the Magnus method. The […] tension without the addition of the drug is expressed as 100%, and the tension of maximal relaxation after the addition of 10^−5M of forscolin was expressed as 0%. The drug was added cumulatively. The β3-adrenoceptor stimulating effects were evaluated as the concentration of the drug required to produce 50% decrease of the tension (i.e., EC50 value) (The Japanese Journal of Urology, Vol.89, No.2, p.272 (1998)).
The Experiment for Measuring β3-Adrenoceptor Stimulating Effects
Urinary bladders of male ferrets (1100 to 1400 g in body weight) were isolated and urinary bladder smooth muscle strips of approximately 10 mm in length and approximately 2 mm in width were prepared. The experiment was conducted according to the Magnus method. The preparations with a tension of 1 g were exposed to Krebs-Henseleit solution maintained at 37° C. and gassed with a mixture of 95% oxygen and 5% carbon dioxide. Basal tensions of urinary bladder were isometrically measured with a force-displacement transducer and recorded on a rectigram. […] In this experiment, tension of urinary bladder smooth muscle before the addition of the drug was expressed as 100% and tension of maximal relaxation after the addition of 10^−5M concentration of forskolin was expressed as 0%.

Series [2] has as its target T1, β2-adrenoceptor (Rattus norvegicus, UniProt P10608).
T1 construct: Uteri of pregnant SD rats (pregnancy day 21) were isolated; from tissue; host or cells: longitudinal uterine strips of pregnant SD rats (day 21)
The experiment in a line: β2-adrenoceptor stimulating effects, isolated pregnant rat uterus contraction inhibition (Magnus method). Conditions: isolated uteri of pregnant SD rats (pregnancy day 21); spontaneous contractions summed over 5 minutes; read-out: EC50 (concentration producing 50% inhibition of uterine contraction). In kind it is cell-based. Here is the method: Also, uteri of pregnant rats were isolated and preparations were made. The experiment was conducted according to the Magnus method. The sum of uterine contractions during 5 minutes before the addition of the drug was expressed as 100%. The drug was added cumulatively. The β2-adrenoceptor stimulating effects were evaluated as the concentration of the drug required when the sum of the contractions during 5 minutes after the addition of the drug produces 50% decrease of the sum of the contractions during 5 minutes before the addition of the drug (i.e., EC50 value).
The Experiment for Measuring β2-Adrenoceptor Stimulating Effects
Uteri of pregnant SD rats (pregnancy day 21) were isolated and longitudinal strips of approximately 15 mm in length and approximately 5 mm in width free from the basal plate were prepared. The experiment was conducted according to the Magnus method. The preparations with a tension of 0.5 g were exposed to Locke-Ringer solution maintained at 37° C. and gassed with a mixture of 95% oxygen and 5% carbon dioxide. Spontaneous contractions of myometrium were isometrically measured with a force-displacement transducer and recorded on a rectigram. The drug was cumulatively added to the Magnus bath every 5 minutes. The drug efficacy was evaluated as the concentration of the drug required to produce 50% of the inhibition of uterine contraction (i.e., EC50 value) by comparing the sum of uterine contraction during 5 minutes after the addition of the drug with the sum of uterine contractions during 5 minutes before the addition of the drug which was expressed as 100%.

For series [3], the target named is T2, β1-adrenoceptor (Rattus norvegicus, UniProt P18090).
T2 construct: Atria of male SD rats (250 to 400 g in body weight) were isolated; from tissue; host or cells: isolated atria of male SD rats
The experiment in a line: β1-adrenoceptor stimulating effects, isolated rat atria heart rate increase (Magnus method). In kind it is cell-based. Conditions: isolated male SD rat atria; 100% = heart rate increase after 10^−8M isoproterenol; read-out: EC50 (concentration producing 50% increase of heart rate). Here is the method: Namely, atria of rats were isolated and preparations were made. The experiment was conducted according to the Magnus method. The increment of heart rate after the addition of isoproterenol (10^−8M) was expressed as 100%. The drug was added cumulatively. The β1-adrenoceptor stimulating effects were evaluated as the concentration of the drug required to produce 50% increase of heart rate (i.e., EC50 value).
The Experiment for Measuring β1-Adrenoceptor Stimulating Effects
Atria of male SD rats (250 to 400 g in body weight) were isolated and the experiment was conducted according to the Magnus method. The preparations with a tension of 0.5 g were exposed to Krebs-Henseleit solution maintained at 37° C. and gassed with a mixture of 95% oxygen and 5% carbon dioxide. The cardiac contractility was isometrically measured with a force-displacement transducer, and heart rate was recorded on a rectigram via a tachometer. The drug was added cumulatively. The drug efficacy was evaluated as the concentration of the drug required to produce 50% increase of heart rate per minute (i.e., EC50 value). In this experiment, increase of heart rate per minute after addition of 10^−8M of isoproterenol was expressed as 100%.

The subject of series [4] is male ICR rats. The experiment in a line: Acute toxicity test. In kind it is in vivo. An excerpt: Furthermore, the compounds represented by the above general formula (I) of the present invention are very safe compounds.

Counter-ions that a name gives are not always drawn.

T1 sequence (P10608 whole entry): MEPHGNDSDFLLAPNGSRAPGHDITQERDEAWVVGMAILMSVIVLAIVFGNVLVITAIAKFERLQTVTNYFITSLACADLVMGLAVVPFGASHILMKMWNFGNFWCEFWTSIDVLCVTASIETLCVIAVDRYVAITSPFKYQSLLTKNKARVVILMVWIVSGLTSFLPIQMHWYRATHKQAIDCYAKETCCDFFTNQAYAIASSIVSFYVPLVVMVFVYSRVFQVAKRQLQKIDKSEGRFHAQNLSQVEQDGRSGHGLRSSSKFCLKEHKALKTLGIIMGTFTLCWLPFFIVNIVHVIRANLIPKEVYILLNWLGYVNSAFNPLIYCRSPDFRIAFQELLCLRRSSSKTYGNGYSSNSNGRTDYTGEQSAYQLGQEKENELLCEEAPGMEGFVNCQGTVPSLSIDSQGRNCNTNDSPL
T2 sequence (P18090 whole entry): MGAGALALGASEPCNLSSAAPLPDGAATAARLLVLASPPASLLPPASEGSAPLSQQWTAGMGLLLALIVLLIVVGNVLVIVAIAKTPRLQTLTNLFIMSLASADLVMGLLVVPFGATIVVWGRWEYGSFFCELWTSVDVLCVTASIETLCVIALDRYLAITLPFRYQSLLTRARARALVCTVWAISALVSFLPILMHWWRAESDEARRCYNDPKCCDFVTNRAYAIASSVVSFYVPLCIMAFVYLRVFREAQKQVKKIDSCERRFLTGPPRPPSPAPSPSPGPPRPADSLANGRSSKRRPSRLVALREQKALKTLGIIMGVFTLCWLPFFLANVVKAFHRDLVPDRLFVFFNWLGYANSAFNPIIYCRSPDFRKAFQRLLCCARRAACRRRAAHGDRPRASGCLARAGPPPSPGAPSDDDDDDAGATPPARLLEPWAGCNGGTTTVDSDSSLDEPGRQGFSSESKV
Chain of β3-adrenoceptor (M3YEU4 entry or part of it): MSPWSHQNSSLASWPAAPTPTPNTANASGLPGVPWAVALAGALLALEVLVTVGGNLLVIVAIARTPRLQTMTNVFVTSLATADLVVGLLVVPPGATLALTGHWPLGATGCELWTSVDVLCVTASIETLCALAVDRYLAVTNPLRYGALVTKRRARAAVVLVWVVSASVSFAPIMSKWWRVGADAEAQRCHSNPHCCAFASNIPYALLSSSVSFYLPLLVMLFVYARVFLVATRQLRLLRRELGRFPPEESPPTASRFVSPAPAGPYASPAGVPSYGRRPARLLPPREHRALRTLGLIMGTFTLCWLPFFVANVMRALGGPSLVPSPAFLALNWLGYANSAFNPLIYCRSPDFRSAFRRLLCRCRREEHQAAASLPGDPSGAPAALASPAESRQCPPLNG

On to `C[C@H](Cc1ccc(OCC(=O)O)cc1)NC[C@H](O)c1cccc(Cl)c1` [BRL-37344, reference compound], for which the figures for the EC50 in series [1], in series [2] and in series [3] were 0.0016 µM, 0.009 µM and 0.27 µM, respectively.

Consider `CCOC(=O)C(C)(C)Oc1ccc(CCN[C@@H](C)[C@H](O)c2ccc(O)cc2)c(Cl)c1` [Compound 7, Ethyl 2-[3-chloro-4-[2-[[(1S,2R)-2-hydroxy-2-(4-hydroxy-phenyl)-1-methylethyl]amino]ethyl]phenoxy]-2-methyl-propionate hydrochloride], for which the figures for the EC50 in series [2] and in series [3] were 0.045 µM and 0.3 µM, respectively.

As for `C[C@H](NCCc1ccc(OC(C)(C)C(=O)O)cc1Cl)[C@H](O)c1ccc(O)cc1` [Compound 9, 2-[3-Chloro-4-[2-[[(1S,2R)-2-hydroxy-2-(4--hydroxyphenyl)-1-methylethyl]amino]ethyl]phenoxy]-2-methylpropionic acid], the “death of animals in acute toxicity test” value is “no death was observed” in series [4] (male ICR rats of 4 weeks age, intravenous, 400 mg/kg, during 24 hours after administration, 400 mg/kg) and “No death of animals was observed” in series [4] (male ICR rats of 4 weeks age, intravenous, 400 mg/kg, during 24 hours after administration; 400 mg/kg)). For the same compound, the values for the EC50 in series [2] and in series [3] were 3.1 µM and 35 µM, respectively.

For the compound `C[C@H](NCCc1ccc(OC(C)(C)C(=O)O)cc1)[C@H](O)c1ccc(O)cc1` [Compound 10, 2-[4-[2-[[(1S,2R)-2-Hydroxy-2-(4-hydroxyphenyl)-1-methyl-ethyl]amino]ethyl]phenoxy]-2-methylpropionic acid], the EC50 in series [2] was 3.9 µM.

As to `C[C@H](NCCc1ccc(OC(C)(C)C(=O)O)c(Cl)c1)[C@H](O)c1ccc(O)cc1` [Compound 11, 2-[2-Chloro-4-[2-[[(1S,2R)-2-hydroxy-2-(4-hydroxyphenyl)-1-methylethyl]amino]ethyl]phenoxy]-2-methylpropionic acid], the EC50 in series [2] is 38 µM; in series [3], above 100 µM.

As for `Cc1cc(CCN[C@@H](C)[C@H](O)c2ccc(O)cc2)ccc1OC(C)(C)C(=O)O` [Compound 12], the EC50 in series [2] and in series [3] was above 100 µM each time.

As for `C[C@H](NCCc1ccc(NC(C)(C)C(=O)O)cc1)[C@H](O)c1ccc(O)cc1` [Compound 13, 2-[[4-[2-[[(1S,2R)-2-Hydroxy-2-(4-hydroxyphenyl)-1-methyl-ethyl]amino]ethyl]phenyl]amino]-2-methylpropionic acid], the EC50 in series [2] was determined as 11 µM; in series [3], 39 µM.

`C[C@H](NCCc1ccc(NC(C)(C)C(=O)O)cc1Cl)[C@H](O)c1ccc(O)cc1` [Compound 14, 2-[[3-Chloro-4-[2-[[(1S,2R)-2-hydroxy-2-(4-hydroxyphenyl)-1-methylethyl]amino]ethyl]phenyl]amino]-2-methylpropionic acid]: the values for the EC50 in series [2] and in series [3] were 1.4 µM and 2.2 µM, respectively.
